Test results: the supplement of paper PMC13380429

Experiments:
U2OS [1] = assay: cell viability relative to DMSO; higher = less toxic; conditions: 72 h
HepG2 [2] = assay: as above; conditions: 72 h
Calu-3 [3] = assay: as above; conditions: 72 h
Caco-2 [4] = assay: as above; conditions: 72 h
Vero E6 [5] = assay: as above; conditions: 72 h
U2OS [6] = assay: relative viability EC50 (midpoint between 100% and the lowest measured viability); higher = less toxic; conditions: 72 h
Calu-3 [7] = assay: as above; conditions: 72 h
Caco-2 [8] = assay: as above; conditions: 72 h
Vero E6 [9] = assay: as above; conditions: 72 h
[10] = system: A549-ACE2 infected with SARS-CoV-2; assay: morphology score (similarity to uninfected cells); higher = more like uninfected cells; conditions: 24 h
A549-ACE2 [11] = assay: drug-induced phospholipidosis relative to tamoxifen; higher = more phospholipidosis
[12] = system: A549-ACE2 infected with SARS-CoV-2; assay: SARS-CoV-2 infection rate relative to DMSO; higher = more infection; conditions: 24 h
U2OS [13] = assay: drug sensitivity score (DSS) for viability; higher = more toxic; extreme values may be limits of the assay; conditions: 72 h
HepG2 [14] = assay: as above; conditions: 72 h
Calu-3 [15] = assay: as above; conditions: 72 h
Caco-2 [16] = assay: as above; conditions: 72 h
Vero E6 [17] = assay: as above; conditions: 72 h
[18] = system: A549-ACE2 infected with SARS-CoV-2; assay: cell count relative to DMSO; higher = less toxic; conditions: 24 h
HepG2 [19] = assay: relative viability EC50 (midpoint between 100% and the lowest measured viability); higher = less toxic; conditions: 72 h
A549-ACE2 [20] = assay: phospholipidosis EC50; higher = less potent phospholipidosis inducer

NS(=O)(=O)C#Cc1ccccc1 [pifithrin-mu]
Conditions	SARS-CoV-2 infection rate, [12] [%]	cell count, [18] [%]	cell viability, Caco-2 [4] [%]	cell viability, Calu-3 [3] [%]	cell viability, HepG2 [2] [%]	cell viability, U2OS [1] [%]	cell viability, Vero E6 [5] [%]	morphology score, [10]
1 nM	–	–	97.2	107	104	99.8	100	–
10 nM	–	–	100	99	89.3	97.5	95.5	–
100 nM	–	–	102	98.4	91.1	97.2	94.4	–
0.1 µM	104	98	–	–	–	–	–	-0.1
0.3 µM	106	98	–	–	–	–	–	-0.19
1000 nM	–	–	92.4	111	104	95.7	98.4	–
1 µM	90	101	–	–	–	–	–	0.29
3 µM	101	99	–	–	–	–	–	-0.06
10000 nM	–	–	37.8	89.7	54.3	20	77.9	–

Conditions	drug sensitivity score	relative viability EC50 [µM]
Caco-2 [8]	–	2.17
Caco-2 [16]	4.7	–
Calu-3 [7]	–	> 10
Calu-3 [15]	0	–
HepG2 [14]	2	–
U2OS [6]	–	2.75
U2OS [13]	5	–
Vero E6 [9]	–	> 10
Vero E6 [17]	1	–

drug-induced phospholipidosis [%], A549-ACE2 [11]
Conditions	0.3 µM	0.833333 µM	3.33333 µM	6.66667 µM	10 µM	30 µM
24 h	2.1	0.49	1.97	5.31	12.1	-1.3
48 h	2.3	-0.12	0.23	3.31	7.4	–
72 h	3.99	-0.0686	0.345	0.553	1.82	–

CN1CCC(CNc2ccc3ncc(-c4cccc(OC(F)(F)F)c4)n3n2)CC1 [SGI-1776]
Conditions	SARS-CoV-2 infection rate [%]	cell count [%]	cell viability [%]	morphology score	phospholipidosis EC50 [µM]
A549-ACE2 [20], 24 h	–	–	–	–	5.98
A549-ACE2 [20], 48 h	–	–	–	–	11.8
A549-ACE2 [20], 72 h	–	–	–	–	7.83
Caco-2 [4], 1 nM	–	–	102	–	–
Caco-2 [4], 10 nM	–	–	98.7	–	–
Caco-2 [4], 100 nM	–	–	101	–	–
Caco-2 [4], 1000 nM	–	–	88.2	–	–
Caco-2 [4], 10000 nM	–	–	58.6	–	–
Calu-3 [3], 1 nM	–	–	95.2	–	–
Calu-3 [3], 10 nM	–	–	88.7	–	–
Calu-3 [3], 100 nM	–	–	97.4	–	–
Calu-3 [3], 1000 nM	–	–	92.8	–	–
Calu-3 [3], 10000 nM	–	–	46.2	–	–
HepG2 [2], 1 nM	–	–	101	–	–
HepG2 [2], 10 nM	–	–	95.1	–	–
HepG2 [2], 100 nM	–	–	98.7	–	–
HepG2 [2], 1000 nM	–	–	99.9	–	–
HepG2 [2], 10000 nM	–	–	37.7	–	–
U2OS [1], 1 nM	–	–	102	–	–
U2OS [1], 10 nM	–	–	95.4	–	–
U2OS [1], 100 nM	–	–	100	–	–
U2OS [1], 1000 nM	–	–	92.1	–	–
U2OS [1], 10000 nM	–	–	52	–	–
Vero E6 [5], 1 nM	–	–	104	–	–
Vero E6 [5], 10 nM	–	–	104	–	–
Vero E6 [5], 100 nM	–	–	99.5	–	–
Vero E6 [5], 1000 nM	–	–	97	–	–
Vero E6 [5], 10000 nM	–	–	55	–	–
[10], 0.1 µM	–	–	–	0.31	–
[10], 0.3 µM	–	–	–	-0.09	–
[10], 1 µM	–	–	–	0.43	–
[10], 3 µM	–	–	–	0.76	–
[12], 0.1 µM	94	–	–	–	–
[12], 0.3 µM	106	–	–	–	–
[12], 1 µM	84	–	–	–	–
[12], 3 µM	48	–	–	–	–
[18], 0.1 µM	–	105	–	–	–
[18], 0.3 µM	–	95	–	–	–
[18], 1 µM	–	106	–	–	–
[18], 3 µM	–	113	–	–	–

Conditions	drug sensitivity score	relative viability EC50 [µM]
Caco-2 [16]	3.9	–
Calu-3 [7]	–	2.09
Calu-3 [15]	4.1	–
HepG2 [14]	3.4	–
HepG2 [19]	–	3.15
U2OS [13]	3.8	–
Vero E6 [17]	2.8	–

drug-induced phospholipidosis [%], A549-ACE2 [11]
Conditions	0.3 µM	0.833333 µM	3.33333 µM	6.66667 µM	10 µM	30 µM
24 h	8.28	2.67	25.6	59.2	81	100
48 h	2.75	0.46	18.4	53.2	85.9	–
72 h	3.7	-1.53	13.6	50.1	79.6	–

c1cncc(CN2CCC(n3ncc4c(N5CCOCC5)nc(-c5ccc6[nH]ccc6c5)nc43)CC2)c1 [WAY-600]
Conditions	SARS-CoV-2 infection rate [%]	cell count [%]	cell viability [%]	morphology score	phospholipidosis EC50 [µM]
A549-ACE2 [20], 24 h	–	–	–	–	0.65
Caco-2 [4], 1 nM	–	–	96.4	–	–
Caco-2 [4], 10 nM	–	–	95.9	–	–
Caco-2 [4], 100 nM	–	–	102	–	–
Caco-2 [4], 1000 nM	–	–	70.3	–	–
Caco-2 [4], 10000 nM	–	–	24.7	–	–
Calu-3 [3], 1 nM	–	–	101	–	–
Calu-3 [3], 10 nM	–	–	94.9	–	–
Calu-3 [3], 100 nM	–	–	95	–	–
Calu-3 [3], 1000 nM	–	–	64.8	–	–
Calu-3 [3], 10000 nM	–	–	27.3	–	–
HepG2 [2], 1 nM	–	–	106	–	–
HepG2 [2], 10 nM	–	–	112	–	–
HepG2 [2], 100 nM	–	–	98.5	–	–
HepG2 [2], 1000 nM	–	–	72.2	–	–
HepG2 [2], 10000 nM	–	–	2.5	–	–
U2OS [1], 1 nM	–	–	102	–	–
U2OS [1], 10 nM	–	–	98.1	–	–
U2OS [1], 100 nM	–	–	97.8	–	–
U2OS [1], 1000 nM	–	–	89.5	–	–
U2OS [1], 10000 nM	–	–	23	–	–
Vero E6 [5], 1 nM	–	–	103	–	–
Vero E6 [5], 10 nM	–	–	104	–	–
Vero E6 [5], 100 nM	–	–	99.4	–	–
Vero E6 [5], 1000 nM	–	–	82.2	–	–
Vero E6 [5], 10000 nM	–	–	25.2	–	–
[10], 0.1 µM	–	–	–	0.01	–
[10], 0.3 µM	–	–	–	0.46	–
[10], 1 µM	–	–	–	0.61	–
[10], 3 µM	–	–	–	0.33	–
[12], 0.1 µM	103	–	–	–	–
[12], 0.3 µM	81	–	–	–	–
[12], 1 µM	56	–	–	–	–
[12], 3 µM	35	–	–	–	–
[18], 0.1 µM	–	102	–	–	–
[18], 0.3 µM	–	101	–	–	–
[18], 1 µM	–	108	–	–	–
[18], 3 µM	–	107	–	–	–

Conditions	drug sensitivity score	relative viability EC50 [µM]
Caco-2 [8]	–	1.19
Caco-2 [16]	8.2	–
Calu-3 [7]	–	1.01
Calu-3 [15]	8.1	–
HepG2 [14]	9.5	–
HepG2 [19]	–	1.44
U2OS [6]	–	2.07
U2OS [13]	6	–
Vero E6 [9]	–	1.59
Vero E6 [17]	6.9	–

drug-induced phospholipidosis [%], A549-ACE2 [11]
Conditions	0.3 µM	0.833333 µM	3.33333 µM	6.66667 µM	10 µM	30 µM
24 h	18.3	55	79.8	55	39.9	10.3
48 h	16.7	40.1	86.2	–	–	–
72 h	17.1	29.6	–	–	–	–
